Reference: US8426429B2, “2-amino-quinazoline derivatives useful as inhibitors of β-secretase (BACE)” (Jansssen Pharmaceutica N.V., priority 2004, dated 2013)

Target: T1, β-secretase (BACE) (Homo sapiens, UniProt P56817)
T1 construct: purchased Panvera
Assay: BACE FS1 % Inhibition Assay
Format: biochemical
Method: The following reagents were used in this assay: sodium acetate, PEG8000 (Sigma), DMSO, HEPES, FS1 substrate [[…]] […] The FS1-substrate stock solution was prepared in DMSO as a 10 mg/mL solution. The FS1-substrate working solution was prepared by diluting the 10 mg/mL stock solution with substrate assay buffer to a final concentration of 300 μg/mL. The β-secretase (BACE) working solution was prepared by diluting a 0.83 mg/mL BACE stock solution with enzyme assay buffer to a final concentration of 4 μg/mL. Test compounds were dissolved in DMSO to 10 mM. […] The screening procedure for this assay was as follows: 15 μL of BACE working solution was pipetted into each well of a 96-well plate. To each well was then pipetted 2 μL of test compound at the selected concentration. Test compound and BACE were then mixed with a pipettor and incubated for 20 min at room temperature. To each well was then added 10 μL of the FS1 substrate working solution. The plates were then incubated for 1 hour at room temperature. […] The procedure for the blank was as follows. 15 μL of assay buffer was pipetted into each well to be used as a blank control. To each well was then added 2 μL of vehicle and 10 μL of FS1-substrate working solution. The plates were then incubated for 1 hour at room temperature. […] The procedure for the positive control was as follows: 15 μL of BACE working solution was pipetted into each well to be used as a positive control. To each well was then pipetted 2 μL of vehicle. Vehicle and BACE were then mixed with a pipettor and incubated for 20 min at room temperature. To each well was then added 10 μL of the FS1 substrate working solution. The plates were then incubated for 1 hour at room temperature. […] For test compounds, % inhibition was determined at each concentration as follows: [formula]

T1 sequence (P56817 46-501): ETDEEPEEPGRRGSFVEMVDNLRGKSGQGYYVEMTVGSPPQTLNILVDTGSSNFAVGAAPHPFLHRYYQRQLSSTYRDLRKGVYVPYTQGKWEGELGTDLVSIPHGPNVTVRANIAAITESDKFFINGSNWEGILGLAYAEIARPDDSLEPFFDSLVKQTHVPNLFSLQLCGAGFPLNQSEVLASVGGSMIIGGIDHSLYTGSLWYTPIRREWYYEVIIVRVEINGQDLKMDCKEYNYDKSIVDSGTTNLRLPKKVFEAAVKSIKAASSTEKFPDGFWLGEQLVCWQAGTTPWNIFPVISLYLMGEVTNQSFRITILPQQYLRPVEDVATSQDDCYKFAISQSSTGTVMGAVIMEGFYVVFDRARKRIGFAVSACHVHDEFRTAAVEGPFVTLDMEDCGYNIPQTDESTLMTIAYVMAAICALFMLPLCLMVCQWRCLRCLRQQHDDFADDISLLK

SMILES	% Inhibition (FS) (0.3 μM test compound) [%]	% Inhibition (FS) (1 μM test compound) [%]	% Inhibition (FS) (3 μM test compound) [%]	also measured
NC1=Nc2ccc(Oc3ccccc3)cc2CN1C(CNC(=O)CC1CCCC1)C1CCCCC1 (stereo not shown) [Compound 311]	74	108	118	–
CCCCC(CC)C(=O)NCCN1Cc2cc(-c3cnc4ccccc4c3)ccc2N=C1N (stereo not shown) [Compound 676]	–	–	–	% Inhibition (FS) (0.3 μM compound, FS1 substrate): 33%; % Inhibition (FS) (1 μM compound, FS1 substrate): <30%; % Inhibition (FS) (3 μM compound, FS1 substrate): 44%
COc1cccc(C)c1Oc1ccc2c(c1)CN(Cc1cccc(C(=O)N(C)C3CCCCC3)c1)C(N)=N2 [Compound 468]	<30	<30	<30	–
NC1=Nc2ccc(-c3ccc4ccccc4c3)cc2CN1CCNC(=O)CCC(F)(F)F [Compound 686]	–	–	–	% Inhibition (FS) (0.3 μM compound, FS1 substrate): <30%; % Inhibition (FS) (1 μM compound, FS1 substrate): 73%; % Inhibition (FS) (3 μM compound, FS1 substrate): 80%
CN1CCC(N(C)C(=O)c2cccc(C(c3ccccc3)N3Cc4cc(Oc5ccccc5)ccc4N=C3N)c2)CC1 (stereo not shown) [Compound 316]	<30	<30	<30	–
CC(C)C(CC(=O)N(C)C1CCCCC1)N1Cc2cc(Oc3ccccc3)ccc2N=C1N (stereo not shown) [Compound 201]	<30	<30	66	–
NC1=Nc2ccc(Oc3ccccc3)cc2CN1C(CNC(=O)C1CCCCC1)Cc1ccc(O)cc1 (stereo not shown) [Compound 614]	<30	<30	<30	–
NC1=Nc2ccc(Oc3ccccc3)cc2CN1C1c2ccccc2-c2cccc(C(=O)N(C3CCCCC3)C3CCCCC3)c21 (stereo not shown) [Compound 124]	–	–	56	% Inhibition (FS) (10 μM test compound): 67%
COC(=O)C1CCCC(N(C)C(=O)CCC(C2CCCCC2)N2Cc3cc(Oc4ccccc4)ccc3N=C2N)C1 (mixture of isomers) [Compound 777]	–	–	–	% Inhibition (FS) (0.3 μM compound, FS1 substrate): 38%; % Inhibition (FS) (1 μM compound, FS1 substrate): 97%
COC(=O)[C@H](COCc1ccccc1)N(C)C(=O)CC[C@@H](C1CCOCC1)N1Cc2cc(Oc3ccccc3)ccc2N=C1N [Compound 786]	–	–	–	% Inhibition (FS) (0.3 μM compound, FS1 substrate): 97%; % Inhibition (FS) (1 μM compound, FS1 substrate): 105%; % Inhibition (FS) (3 μM compound, FS1 substrate): 114%
COc1cccc(F)c1-c1ccc2c(c1)CN(CCNC(=O)C1CCC(C(F)(F)F)CC1)C(N)=N2 (stereo not shown) [Compound 700]	–	–	–	% Inhibition (FS) (0.3 μM compound, FS1 substrate): <30%; % Inhibition (FS) (1 μM compound, FS1 substrate): 36%; % Inhibition (FS) (3 μM compound, FS1 substrate): 85%
CC(=O)Nc1cccc(Oc2ccc3c(c2)CN(Cc2cccc(C(=O)N(C)C4CCCCC4)c2)C(N)=N3)c1 [Compound 229]	<30	35	<30	–
COc1ccccc1-c1cc2c(cc1F)CN(CCC(=O)NC1C3CC4CC(C3)CC1C4)C(N)=N2 (stereo not shown) [Compound 620]	<30	<30	37	–
NC1=Nc2ccc(Oc3ccccc3)cc2CN1Cc1cccc(C(=O)N2CCCCC2)c1 [Compound 443]	<30	39	67	–
CCCC(CNC(=O)C12CC3CC(CC(C3)C1)C2)N1Cc2cc(Oc3ccccc3)ccc2N=C1N (stereo not shown) [Compound 555]	–	–	–	% Inhibition (FS) (0.3 μM test compound, 0.3 µM): <30%; % Inhibition (FS) (1 μM test compound, 1 µM): <30%; % Inhibition (FS) (3 μM test compound, 3 µM): 46%
COc1ccccc1-c1ccc2c(c1)CN([C@@H](CCC(=O)N(C)Cc1cc(-c3ccccc3)on1)C1CCCCC1)C(N)=N2 [Compound 719]	–	–	–	% Inhibition (FS) (0.3 μM compound, FS1 substrate): 31%; % Inhibition (FS) (1 μM compound, FS1 substrate): <30%; % Inhibition (FS) (3 μM compound, FS1 substrate): 81%
CN(Cc1cccc(CC(=O)O)c1)C(=O)CCC(C1CCCCC1)N1Cc2cc(Oc3ccccc3)ccc2N=C1N (stereo not shown) [Compound 778]	–	–	–	% Inhibition (FS) (0.3 μM compound, FS1 substrate): <30%; % Inhibition (FS) (1 μM compound, FS1 substrate): 77%
NC1=Nc2ccc(Oc3ccccc3)cc2CN1C1CCCN(C(=O)C2CCCCC2)C1 (stereo not shown) [Compound 611]	<30	36	<30	–
CN(C(=O)c1cccc(CN2Cc3cc(Oc4ccccc4-c4nc5ccccc5s4)ccc3N=C2N)c1)C1CCCCC1 [Compound 470]	<30	<30	31	–
Cc1ccccc1-c1ccc2c(c1)CN(CCNC(=O)CCC(C)C)C(N)=N2 [Compound 661]	–	–	–	% Inhibition (FS) (0.3 μM compound, FS1 substrate): 68%; % Inhibition (FS) (1 μM compound, FS1 substrate): 98%
CC(C)(C)OC(=O)N1CCCCC(N2Cc3cc(Oc4ccccc4)ccc3N=C2N)C1 (stereo not shown) [Compound 510]	<30	<30	37	–
CC(C)c1ccc(Sc2ccc3c(c2)CN(Cc2cccc(C(=O)N(C)C4CCCCC4)c2)C(N)=N3)cc1 [Compound 407]	<30	<30	48	–
NC1=Nc2ccc(Oc3ccccc3)cc2CN1C1CCCCN(C(=O)C23CC4CC(CC(C4)C2)C3)C1 (stereo not shown) [Compound 550]	<30	<30	67	–
NC1=Nc2ccc(Oc3ccccc3)cc2CN1[C@@H](CCC(=O)N[C@@H](CO)C(=O)O)C1CCOCC1 [Compound 771]	–	–	–	% Inhibition (FS) (0.3 μM compound, FS1 substrate): 46%; % Inhibition (FS) (1 μM compound, FS1 substrate): 79%; % Inhibition (FS) (3 μM compound, FS1 substrate): 105%
CNC(=O)C1CCC(N(C)C(=O)CCC(C2CCCCC2)N2Cc3cc(Oc4ccccc4)ccc3N=C2N)CC1 (stereo not shown) [Compound 765]	–	–	–	% Inhibition (FS) (0.3 μM compound, FS1 substrate): <30%; % Inhibition (FS) (1 μM compound, FS1 substrate): 56%; % Inhibition (FS) (3 μM compound, FS1 substrate): 97%

Continued, in another order:

% Inhibition (FS) (0.3 μM test compound) [%]	% Inhibition (FS) (1 μM test compound) [%]	% Inhibition (FS) (3 μM test compound) [%]	SMILES	also measured
<30	<30	<30	NC1=Nc2ccc(-c3cncnc3)cc2CN1CCNC(=O)C1CCCCC1 [Compound 575]	–
<30	<30	<30	CCCC=Cc1ccc2c(c1)CN(CCNC(=O)c1ccc(NC(C)=O)cc1)C(N)=N2 [Compound 592]	–
<30	<30	<30	CCCC=Cc1ccc2c(c1)CN(CCNC(=O)CC1CCCC1)C(N)=N2 [Compound 580]	–
<30	<30	<30	CN(C(=O)c1cccc(CN2Cc3cc(Oc4ccccc4S(C)(=O)=O)ccc3N=C2N)c1)C1CCCCC1 [Compound 472]	–
<30	<30	48	COc1ccc(F)cc1-c1ccc2c(c1)CN(CCNC(=O)C1CCCCC1)C(N)=N2 [Compound 631]	–
<30	<30	37	CN(C(=O)c1cccc(CN2Cc3cc(-c4ccc5[nH]ccc5c4)ccc3N=C2N)c1)C1CCCCC1 [Compound 175]	–
–	–	97	CCCC(CCC(=O)NC1CCCCCC1)N1Cc2cc(Oc3ccccc3)ccc2N=C1N (stereo not shown) [Compound 128]	% Inhibition (FS) (10 μM test compound): 108%
<30	<30	36	CCCC(CCC)C(=O)N1CCCCC(N2Cc3cc(Oc4ccccc4)ccc3N=C2N)C1 (stereo not shown) [Compound 552]	–
<30	<30	49	COc1ccccc1-c1ccc2c(c1)CN(CCNC(=O)CCN)C(N)=N2 [Compound 493]	–
<30	<30	<30	CCCC=Cc1ccc2c(c1)CN(CCNC(=O)CCC)C(N)=N2 [Compound 571]	–
<30	<30	<30	Cc1cc(C(=O)NCCN2Cc3cc(-c4cccc(CO)c4)ccc3N=C2N)c(C)o1 [Compound 589]	–
<30	46	72	CC(C)(C)OC(=O)NCC(c1ccccc1)N1Cc2cc(Oc3ccccc3)ccc2N=C1N (stereo not shown) [Compound 258]	–
<30	<30	85	Cc1cccc(Nc2ccc3c(c2)CN(Cc2cccc(C(=O)N(C)C4CCCCC4)c2)C(N)=N3)c1 [Compound 435]	–
<30	<30	<30	COc1cccc(COc2ccc3c(c2)CN(Cc2cccc(C(=O)N(C)C4CCCCC4)c2)C(N)=N3)c1 [Compound 514]	–
<30	<30	<30	CN1CCCC1CCNC(=O)c1cccc(CN2Cc3cc(Oc4ccccc4)ccc3N=C2N)c1 (stereo not shown) [Compound 222]	–
<30	<30	49	COc1ccccc1Sc1ccc2c(c1)CN(Cc1cccc(C(=O)N(C)C3CCCCC3)c1)C(N)=N2 [Compound 412]	–
<30	<30	32	CCCN(CC1CC1)C(=O)c1cccc(CN2Cc3cc(Oc4ccccc4)ccc3N=C2N)c1 [Compound 197]	–
<30	<30	<30	CC(=O)c1cccc(-c2ccc3c(c2)CN(CCNC(=O)CC2CCCC2)C(N)=N3)c1 [Compound 582]	–
